Changes are numbered by the printed parent chain.
Tests used:
Type in all cases: cell-based
PAR4-S66E = molecular target: T1, PAR4-S66E (Homo sapiens, UniProt Q96RI0, S66E); assay: PAR4 mutant calcium flux assay, HEK293T/17 cells, S66E; settings: 100 nM vorapaxar
T1 construct: Flag; expressed in transfected cells; host or cells: HEK293T/17 (ATCC CRL-11268)
T1 sequence (Q96RI0 18-385 S66E): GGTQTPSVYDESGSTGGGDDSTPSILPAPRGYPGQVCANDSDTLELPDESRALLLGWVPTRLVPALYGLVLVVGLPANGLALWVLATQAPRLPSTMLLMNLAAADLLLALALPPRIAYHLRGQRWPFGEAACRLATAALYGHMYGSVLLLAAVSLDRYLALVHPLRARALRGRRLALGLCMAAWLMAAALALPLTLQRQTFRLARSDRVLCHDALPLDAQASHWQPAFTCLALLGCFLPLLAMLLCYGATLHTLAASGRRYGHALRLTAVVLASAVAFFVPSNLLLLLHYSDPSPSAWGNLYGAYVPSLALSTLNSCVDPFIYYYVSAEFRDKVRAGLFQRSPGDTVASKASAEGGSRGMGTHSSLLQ
Experimental: (§1) PAR4 mutant calcium flux assays. Using Quikchange Lightning Site-Directed mutagenesis (Agilent) per manufacturing instructions, pCMV-Flag-PAR4-S66E, pCMV-Flag-PAR4-S67E, and pCMV-Flag-PAR4-R68E were generated from mutation of pCMV-Flag-PAR4 and confirmed by sequencing (University of Utah DNA Sequencing Core). Prior to transfection, HEK293T/17 cells (ATCC CRL-11268) were seeded at 4.5×10^4/mL. The following day, cells were transfected with the plasmid of interest using Lipofectamine 2000 (Invitrogen, Carlsbad, CA, USA). Twenty-four hours after transfection, media was removed and replaced with Optimem w/Glutamax (Gibco, Carlsbad, CA, USA) containing vorapaxar (100 nM) (Cayman Chemical, Ann Arbor, MI, USA) and Fura2-QBT (Molecular Devices). Following incubation for 1 hour at 37° C., plate was placed in the Flexstation 3 (Molecular Devices) where agonists, Tyrode's Buffer, cathepsin G (2.5 μM), or α-thrombin (1.5 U/mL), were injected onto cells and calcium mobilization was monitored and recorded.

PAR4-S67E = molecular target: T2, PAR4-S67E (Homo sapiens, UniProt Q96RI0, S67E); assay: PAR4 mutant calcium flux assay, HEK293T/17 cells, S67E; settings: 100 nM vorapaxar
T2 construct: Flag; expressed in transfected cells; host or cells: HEK293T/17 (ATCC CRL-11268)
T2 sequence (Q96RI0 18-385 S67E): T1 sequence (Q96RI0 18-385 S66E) with E49S, S50E
Experimental: as §1

PAR4-R68E = molecular target: T3, PAR4-R68E (Homo sapiens, UniProt Q96RI0, R68E); assay: PAR4 mutant calcium flux assay, HEK293T/17 cells, R68E; settings: 100 nM vorapaxar
T3 construct: Flag; expressed in transfected cells; host or cells: HEK293T/17 (ATCC CRL-11268)
T3 sequence (Q96RI0 18-385 R68E): T1 sequence (Q96RI0 18-385 S66E) with E49S, R51E
Experimental: as §1

mouse washed platelets = assay: Platelet aggregation of mouse washed platelets; settings: 1 U/mL human thrombin, 1 μM human CatG or 1 mM RA-11mer
Source text: Animal studies. Mouse platelets were isolated as previously described from C57BL/6 mice (Denorme et al., Blood. 2020; 135(6):429-440). Dog platelets were isolated from whole blood drawn into ACD using a similar isolation procedure as for human platelets. All animal studies were approved by the University of Utah Institutional Animal Care and Use Committee (18-10012).
Platelet and neutrophil isolation. Platelets and neutrophils were isolated as previously described (Yost et al., J Clin Invest. 2016; 126(10):3783-3798). Platelet isolation from dogs, rats and mice was approved by the IACUC. Platelet activation and aggregation were performed as previously described (Manne et al., Blood. 2020; 136(11): 1317-1329).
Platelet isolation, aggregation, and activation. Human washed platelets were prepared and resuspended in Tyrode's Buffer at 2×10^8/mL as described (Edelstein et al., Nat Med. 2013; 19(12):1609-1616). For human and dog platelet comparisons, platelets were prepared using a modified human platelet protocol with final concentrations of […] (Cayman Chemical, Ann Arbor, MI, USA) used during centrifugation steps. Centrifugations after Tyrode's washes was decreased to 1,250×g as described in Cremer et al., PLOS One. 2019; 14(11): e0224891. Platelet aggregation was measured under stirring conditions at 37° C. using a PAP-8E aggregometer after treatment with the following agonists: arachidonic acid (Bio/Data Corporation, Horsham, PA, USA), cathepsin G, elastase, proteinase 3 (Athens Research Group), α-thrombin (Sigma, St. Louis, MO, USA), PAR-1 peptide (SFLLRN) (GL Biochem, China). P-selectin and PAC-1 were measured as previously described (Yee et al., J Thromb Haemost. 2006; 4(9):2043-2050; Tourdot et al., Arterioscler Thromb Vasc Biol. 2014; 34(12):2644-2650).

Row | Substance | thrombin-induced calcium flux, S66E mutant compared with WT (PAR4-S66E; thrombin 1.5 U/mL) | thrombin-induced calcium flux, S67E mutant compared with WT (PAR4-S67E; thrombin 1.5 U/mL) | thrombin-induced calcium flux, R68E mutant compared with WT (PAR4-R68E; thrombin 1.5 U/mL) | platelet aggregation, species comparison: mice (mouse washed platelets) | CatG-induced calcium flux, S66E mutant compared with WT (PAR4-S66E; CatG 2.5 μM) | CatG-induced calcium flux, S67E mutant compared with WT (PAR4-S67E; CatG 2.5 μM, P<0.001) | CatG-induced calcium flux, R68E mutant compared with WT (PAR4-R68E; CatG 2.5 μM, P<0.001)
1 | thrombin | None of the PAR4 mutants were significantly different than WT | None of the PAR4 mutants were significantly different than WT | None of the PAR4 mutants were significantly different than WT | induced platelet aggregation | – | – | –
2 | CatG: serine protease cathepsin G released by activated neutrophils | – | – | – | only induced platelet aggregation in humans and dogs | slight decrease | significantly less calcium flux than WT | significantly less calcium flux than WT

Source: US12077607B2, “Functional and therapeutic effects of PAR4 cleavage by cathepsin G” (UNIVERSITY OF UTAH RESEARCH FOUNDATION, priority 2021, dated 2024)
